This passage reports EC50 results from US8815909B2, “Diaminocyclohexane compounds and uses thereof” (Bristol-Myers Squibb Company, priority 2011, dated 2014).

This experiment has as its target T1, human Y4 receptor (Homo sapiens, UniProt P50391).
T1 construct: expressed in transfected cells
Description: NPY4 cAMP HTRF Agonist Assay (inhibitory cAMP assay, Gi activation by Y4 agonism). Type of experiment: cell-based. An outline of the steps:
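Y4 agonism read as lowered forskolin-stimulated cAMP (HTRF, 1 h detection at room temperature). Stable human Y4 CHO clone, 5000 cells/well, incubated 30 min at room temperature with compounds plus forskolin and IBMX in PBS.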

Where [1] appears, read: human Y4 receptor, cAMP, read-out: hY4 CAMP EC50.
The mark [2] stands for this setting: TABLE 2, R2 is Phenyl-CN, read-out: hY4 CAMP EC50.
The mark [3] stands for this setting: second TABLE 1, R2 is Phenyl-CF3, read-out: hY4 CAMP EC50.
[4] abbreviates: human Y4 stable CHO clonal cells, forskolin + IBMX, read-out: NPY4 cAMP HTRF Agonist Assay EC50.
[5] abbreviates: TABLE 4, R2 is Pyridinyl-CN, read-out: hY4 CAMP EC50.
[6] abbreviates: TABLE 5, R2 is Pyridinyl-CF3, read-out: hY4 CAMP EC50.

Like-named read-outs stand apart in the source and are kept apart here.

T1 sequence (P50391 whole entry): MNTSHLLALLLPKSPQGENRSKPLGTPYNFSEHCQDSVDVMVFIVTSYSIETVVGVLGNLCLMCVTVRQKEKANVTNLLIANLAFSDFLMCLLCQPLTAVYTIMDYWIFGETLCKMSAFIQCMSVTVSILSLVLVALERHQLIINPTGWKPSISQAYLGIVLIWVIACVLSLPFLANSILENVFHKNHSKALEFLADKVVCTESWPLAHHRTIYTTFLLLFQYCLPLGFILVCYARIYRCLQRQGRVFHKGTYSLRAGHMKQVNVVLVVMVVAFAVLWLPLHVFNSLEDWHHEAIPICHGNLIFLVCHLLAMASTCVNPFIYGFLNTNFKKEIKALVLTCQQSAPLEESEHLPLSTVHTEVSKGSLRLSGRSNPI

Broadly, the EC50 is the concentration needed to bring the measured effect to its halfway point. In the case of `NC(=O)c1cccc(-c2ccnc(N[C@@H]3CCCC[C@H]3N[C@H]3C[C@@H]4C[C@H]3N(c3ccc([N+](=O)[O-])cc3)C4)c2)c1` [Example 294], the 50% effective concentration (EC50) (TABLE 3, R2 is Phenyl-NO2, read-out: hY4 CAMP EC50) stood at 0.041 µM.

Turning to `Cc1nc(-c2ccc(N3C[C@@H]4C[C@H](N[C@@H]5CCCC[C@H]5Nc5cc(-c6cccc(C(N)=O)c6)ccn5)[C@H]3C4)cc2)no1` [Example 353], the EC50 under setting [1] worked out at 0.001 µM.

`CS(=O)(=O)NCc1ccc(-c2ccnc(N[C@@H]3CCCC[C@H]3N[C@H]3CCCN(c4ccc(C#N)cc4)C3)c2)cc1` [Example 243]: the EC50 under setting [2] was 0.602 µM.

Consider `NC(=O)c1cccc(-c2cnc(N[C@@H]3CCCC[C@H]3N[C@H]3C[C@@H]4C[C@H]3N(c3ccc(C(F)(F)F)cc3)C4)o2)c1` [Example 178], for which the EC50 under setting [3] came to 0.002 µM.

Turning to `N#Cc1ccc(N2C[C@@H]3C[C@H](N[C@@H]4CCCC[C@H]4Nc4ncc(-c5ccccc5F)o4)[C@H]2C3)cc1` [Example 223], the EC50 under setting [2] was 0.005 µM.

As to `N#Cc1cnc(N2CCC[C@H](N[C@@H]3CCCC[C@H]3Nc3ncc(-c4ccc(OC(F)(F)F)cc4)o3)C2)nc1` [Example 81, 2-((S)-3-((1R,2R)-2-(5-(4-(Trifluoromethoxy)phenyl)oxazol-2-ylamino)cyclohexylamino)piperidin-1-yl)pyrimidine-5-carbonitrile bis-trifluoroacetate], the EC50 under setting [4] was determined as 0.041 µM.

`O=[N+]([O-])c1ccc(N2CCC[C@H](N[C@@H]3CCCC[C@H]3Nc3ncc(-c4ccc(C(F)(F)F)cc4)o3)C2)cc1` [Example 7, (1R,2R)—N1-((S)-1-(4-Nitrophenyl)piperidin-3-yl)-N2-(5-(4-(trifluoromethyl)phenyl)oxazol-2-yl)cyclohexane-1,2-diamine]: the EC50 under setting [4] came out at 0.185 µM.

In the case of `Cn1nnc(-c2ccc(N3C[C@@H]4C[C@H](N[C@@H]5CCCC[C@H]5Nc5cc(-c6cccc(C(N)=O)c6)ccn5)[C@H]3C4)cc2)n1` [Example 460], under setting [1], the concentration for a half-maximal effect (EC50) came out at 0.004 µM.

On to `COC(=O)Nc1cccc(-c2ccnc(N[C@@H]3CCCC[C@H]3N[C@H]3CCCN(c4ccc(C(F)(F)F)cc4)C3)c2)c1` [Example 132], for which, under setting [3], the EC50 was determined as 0.003 µM.

Regarding `Cn1cnc(-c2ccc(N3CCC[C@H](N[C@@H]4CCCC[C@H]4Nc4cc(-c5cccc(O)c5)ccn4)C3)cc2)n1` [Example 456], under setting [1], the EC50 worked out at 0.028 µM.

`N#Cc1cnc(N2CCC[C@H](N[C@@H]3CCCC[C@H]3Nc3cc(-c4cccc(C(N)=O)c4)ccn3)C2)cn1` [Example 477]: the EC50 under setting [1] is 0.775 µM.

Consider `Cc1nnc(-c2ccc(N3CCCC(N[C@@H]4CCCC[C@H]4Nc4cc(-c5ccc6c(c5)OCO6)ccn4)C3)cc2)o1` (some centres unmarked) [Example 368], for which the EC50 under setting [1] turned out to be 0.039 µM.

As to `N#Cc1ccc(N2CCC[C@H](N[C@@H]3CCCC[C@H]3Nc3cc(Cc4ccccc4)ccn3)C2)cc1` [Example 245], the EC50 under setting [2] worked out at 0.299 µM.

In the case of `c1ccc(-c2cnc(N[C@@H]3CCCC[C@H]3N[C@H]3CCCN(c4ccc(-n5cncn5)cc4)C3)o2)cc1` [Example 90, (1R,2R)—N1-((S)-1-(4-(1H-1,2,4-Triazol-1-yl)phenyl)piperidin-3-yl)-N2-(5-phenyloxazol-2-yl)cyclohexane-1,2-diamine bis-trifluoroacetate], the EC50 under setting [4] stood at 0.132 µM.

Regarding `N#Cc1ncc(N2CCC[C@H](N[C@@H]3CCCC[C@H]3Nc3ncc(-c4cccc(C(N)=O)c4)o3)C2)cn1` [Example 438], the EC50 under setting [1] was 0.005 µM.

In the case of `N#Cc1ccc(N2CCC[C@H](N[C@@H]3CCCC[C@H]3Nc3cc(-n4cncn4)ccn3)C2)cc1` [Example 208], the EC50 under setting [2] was determined as 0.231 µM.

In the case of `C[C@]1(N[C@@H]2CCCC[C@H]2Nc2ncc(-c3cccc(C(N)=O)c3)o2)CCCN(c2ccc(C#N)cn2)C1` [Example 298], the 50% effective concentration (EC50) under setting [5] amounted to 0.023 µM.

`CCNC(=O)c1cccc(-c2cnc(N[C@@H]3CCCC[C@H]3N[C@H]3CCCN(c4ccc(C(F)(F)F)cc4)C3)o2)c1` [Example 124]: the EC50 under setting [3] is 0.002 µM.

In the case of `Cc1nc(-c2ccc(N3CCC[C@](C)(N[C@@H]4CCCC[C@H]4Nc4ncc(-c5cccc(C(N)=O)c5)o4)C3)cn2)no1` [Example 389], the half-maximal effective concentration (EC50) (TABLE 7, R2 is Pyridinyl-oxadiazole-CH3, read-out: hY4 CAMP EC50) worked out at 0.013 µM.

With `N#Cc1cc(N2C[C@@H]3C[C@H](N[C@@H]4CCCC[C@H]4Nc4ncc(-c5ccc(OC(F)(F)F)cc5)o4)[C@H]2C3)ccn1` [Example 310], the concentration giving a half-maximal response (EC50) under setting [5] was 0.124 µM.

Consider `CS(=O)(=O)Nc1cccc(-c2cnc(N[C@@H]3CCCC[C@H]3N[C@H]3CCCN(c4cnc(C(F)(F)F)nc4)C3)o2)c1` [Example 414], for which, under setting [1], the EC50 amounted to 0.005 µM.

Regarding `NC(=O)c1cccc(-c2ccnc(N[C@@H]3CCCC[C@H]3N[C@H]3CCCN(c4ccc(C(F)(F)F)nc4)C3)c2)c1` [Example 321], the EC50 under setting [6] was 0.016 µM.

`N#Cc1ccc(N2C[C@@H]3C[C@H](N[C@@H]4CCCC[C@H]4Nc4cc(Br)ccn4)[C@H]2C3)cc1` [Example 233]: the EC50 under setting [2] stood at 0.196 µM.

For the molecule `Cc1nc(-c2ccc(N3CCC[C@H](N[C@@H]4CCCC[C@H]4Nc4cc(-c5ccc(F)c(F)c5)ccn4)C3)cc2)no1` [Example 342], the EC50 under setting [1] is 0.008 µM.

In the case of `COC(=O)Nc1cccc(-c2cnc(N[C@@H]3CCCC[C@H]3N[C@H]3CCCN(c4ccc(C(F)(F)F)nc4)C3)o2)c1` [Example 331], the EC50 under setting [6] was 0.005 µM.

Turning to `N#Cc1ccc(N2C[C@@H]3C[C@H](N[C@@H]4CCCC[C@H]4Nc4cc(-c5cccc(O)c5)ccn4)[C@H]2C3)cc1` [Example 228], the EC50 under setting [2] was found to be 0.001 µM.

Take `C[C@]1(N[C@@H]2CCCC[C@H]2Nc2cc(-c3cccc(C(N)=O)c3)ccn2)CCCN(c2ccc(C#N)nc2)C1` [Example 306]: the EC50 under setting [5] was determined as 0.141 µM.

Consider `O=C1OCCN1c1cccc(-c2cnc(N[C@@H]3CCCC[C@H]3N[C@H]3CCCN(c4ccc(C(F)(F)F)cc4)C3)o2)c1` [Example 133], for which, under setting [3], the 50% effective concentration (EC50) amounted to 0.008 µM.

As to `O=C(Nc1cccc(-c2cnc(N[C@@H]3CCCC[C@H]3N[C@H]3CCCN(c4ccc(C(F)(F)F)nc4)C3)o2)c1)C1CC1` [Example 334], under setting [6], the EC50 came to 0.003 µM.

On to `NC(=O)c1cc(-c2cnc(N[C@@H]3CCCC[C@H]3N[C@H]3CCCN(c4cnc(C(F)(F)F)nc4)C3)o2)ccn1` [Example 425], for which the EC50 under setting [1] is 0.015 µM.

Take `Cc1nnc(-c2ccc(N3CCC[C@H](N[C@@H]4CCCC[C@H]4Nc4cc(-c5ccc(OC(F)F)cc5)ccn4)C3)cc2)o1` [Example 375]: under setting [1], the EC50 was determined as 0.217 µM.

For `C[C@@H](O)c1cccc(-c2ccnc(N[C@@H]3CCCC[C@H]3N[C@H]3CCCN(c4ccc(C#N)cc4)C3)c2)c1` [Example 267], the EC50 under setting [2] was 0.003 µM.

As for `COC(=O)Nc1cccc(-c2ccnc(N[C@@H]3CCCC[C@H]3N[C@H]3CCCN(c4ccc(-c5cncnc5)cc4)C3)c2)c1` [Example 515], under setting [1], the EC50 was found to be 0.011 µM.

Turning to `C[C@H](O)c1cccc(-c2ccnc(N[C@@H]3CCCC[C@H]3N[C@H]3CCCN(c4ccc(C#N)cc4)C3)c2)c1` [Example 268], under setting [2], the EC50 was found to be 0.008 µM.

Regarding `Fc1ccc(-c2cnc(N[C@@H]3CCCC[C@H]3N[C@H]3CCCN(c4cnc(C(F)(F)F)nc4)C3)o2)c(F)c1` [Example 403], the EC50 under setting [1] was determined as 0.264 µM.

With `N#Cc1ccc(N2CCC[C@H](N[C@@H]3CCCC[C@H]3Nc3ncc(-c4ccc(OC(F)(F)F)cc4)o3)C2)c(F)c1` [Example 52, 3-Fluoro-4-((S)-3-((1R,2R)-2-(5-(4-(trifluoromethoxy)phenyl)oxazol-2-ylamino)cyclohexylamino)piperidin-1-yl)benzonitrile], the EC50 under setting [4] came to 0.193 µM.

For the molecule `CC(C)NC(=O)c1cccc(-c2ccnc(N[C@@H]3CCCC[C@H]3N[C@H]3CCCN(c4ccc(C(F)(F)F)cc4)C3)c2)c1` [Example 147], under setting [3], the EC50 came out at 0.02 µM.

For the molecule `COc1ccc(-c2ccnc(N[C@@H]3CCCC[C@H]3NC3CCCN(c4ccc(-c5nnc(C)o5)cc4)C3)c2)cc1` (some centres unmarked) [Example 366], the EC50 under setting [1] is 0.323 µM.

Regarding `NC(=O)c1cccc(-c2ccnc(N[C@@H]3CCCC[C@H]3N[C@H]3CCCN(c4cnc(C(F)(F)F)cn4)C3)c2)c1` [Example 473], the EC50 under setting [1] was determined as 0.079 µM.

For `N#Cc1ccc(N2CCC[C@H](N[C@@H]3CCCC[C@H]3Nc3cc(-c4cccc(N)n4)ccn3)C2)cc1` [Example 237], the EC50 under setting [2] stood at 0.009 µM.

On to `COc1ccc(-c2cnc(N[C@@H]3CCCC[C@H]3N[C@H]3CCCN(c4ccc(C(F)(F)F)nc4)C3)o2)cc1C#N` [Example 335], for which the EC50 under setting [6] came to 1.6 µM.

`FC(F)(F)Oc1ccc(-c2cnc(N[C@@H]3CCCC[C@H]3N[C@H]3CCCN(c4cnc(C(F)(F)F)nc4)C3)o2)cc1` [Example 401]: the EC50 under setting [1] was 1.48 µM.

Consider `C[C@]1(N[C@@H]2CCCC[C@H]2Nc2ncc(-c3cccc(C(N)=O)c3)o2)CCCN(c2ccc(C(=N)NC(=O)C3CC3)nc2)C1` [Example 445], for which, under setting [1], the EC50 amounted to 0.004 µM.

Take `FC(F)(F)c1cnc(N2CCC[C@H](N[C@@H]3CCCC[C@H]3Nc3ncc(-c4ccccc4)o3)C2)nc1` [Example 79, (1R,2R)—N1-(5-Phenyloxazol-2-yl)-N2-((S)-1-(5-(trifluoromethyl)pyrimidin-2-yl)piperidin-3-yl)cyclohexane-1,2-diamine bis-trifluoroacetate]: the EC50 under setting [4] turned out to be 0.083 µM.

As to `N#Cc1ccc(N2CCC[C@H](N[C@@H]3CCCC[C@H]3Nc3ncc(-c4cccc(F)c4)o3)C2)cc1` [Example 35, 4-((S)-3-((1R,2R)-2-(5-(3-Fluorophenyl)oxazol-2-ylamino)cyclohexylamino)piperidin-1-yl)benzonitrile], the EC50 under setting [4] was found to be 0.042 µM.

Regarding `COC(=O)Nc1cccc(-c2ccnc(N[C@@H]3CCCC[C@H]3N[C@H]3CCCN(c4ccc(C#N)cc4)C3)c2)c1` [Example 201], the EC50 under setting [2] worked out at 0.005 µM.

Regarding `O=C(O)c1cccc(-c2cnc(N[C@@H]3CCCC[C@H]3N[C@H]3CCCN(c4ccc(C(F)(F)F)cc4)C3)o2)c1` [Example 116], the EC50 under setting [3] came out at 0.886 µM.
